Measured values as given in the NIST ThermoML archive (doi:10.1016/j.jct.2017.06.001).

Test: xn = mol fraction of the nth substance listed
Settings: 100 kPa, Liquid; for speed of sound: Frequency=5 MHz, Pulse-echo method; for mass density: Vibrating tube method

OCCCCCO [1,5-pentanediol] + O
Settings | mass density [kg/m3] | speed of sound [m/s]
318.15 K, x1 = 0.005 | 989.65 | –
318.15 K, x1 = 0.0101 | 989.41 | –
318.15 K, x1 = 0.0196 | 989.31 | –
318.15 K, x1 = 0.0251 | 989.53 | –
318.15 K, x1 = 0.0304 | 989.77 | –
318.15 K, x1 = 0.05 | 990.21 | –
318.15 K, x1 = 0.0769 | 990.38 | –
318.15 K, x1 = 0.1002 | 990.62 | –
318.15 K, x1 = 0.1438 | 990.42 | –
318.15 K, x1 = 0.1836 | – | 1646.1
318.15 K, x1 = 0.1845 | 989.72 | –
318.15 K, x1 = 0.1877 | – | 1645.8
318.15 K, x1 = 0.1923 | – | 1645.5
318.15 K, x1 = 0.1928 | – | 1645.4
318.15 K, x1 = 0.1977 | – | 1645
318.15 K, x1 = 0.2017 | – | 1644.7
318.15 K, x1 = 0.2025 | – | 1644.6
318.15 K, x1 = 0.2049 | – | 1644.4
318.15 K, x1 = 0.2132 | – | 1643.6
318.15 K, x1 = 0.2224 | – | 1642.7
318.15 K, x1 = 0.2331 | – | 1641.6
318.15 K, x1 = 0.2482 | – | 1640
318.15 K, x1 = 0.2503 | 988.52 | –
318.15 K, x1 = 0.2698 | – | 1637.7
318.15 K, x1 = 0.2859 | – | 1635.9
318.15 K, x1 = 0.2955 | – | 1634.9
318.15 K, x1 = 0.3 | 987.37 | –
318.15 K, x1 = 0.312 | – | 1633
318.15 K, x1 = 0.3191 | – | 1632.2
318.15 K, x1 = 0.3343 | 986.64 | –
318.15 K, x1 = 0.3352 | – | 1630.3
318.15 K, x1 = 0.3499 | – | 1628.6
318.15 K, x1 = 0.3678 | – | 1626.5
318.15 K, x1 = 0.3857 | – | 1624.3
318.15 K, x1 = 0.4054 | – | 1621.9
318.15 K, x1 = 0.4171 | 985.02 | –
318.15 K, x1 = 0.4216 | – | 1619.8
318.15 K, x1 = 0.4392 | – | 1617.6
318.15 K, x1 = 0.4494 | – | 1616.3
318.15 K, x1 = 0.454 | 984.19 | –
318.15 K, x1 = 0.4703 | – | 1613.5
318.15 K, x1 = 0.4894 | – | 1611
318.15 K, x1 = 0.5003 | 983.3 | –
318.15 K, x1 = 0.5038 | – | 1609.1
318.15 K, x1 = 0.5212 | – | 1606.7
318.15 K, x1 = 0.5362 | 982.6 | –
318.15 K, x1 = 0.5442 | – | 1603.6
318.15 K, x1 = 0.565 | – | 1600.8
318.15 K, x1 = 0.5841 | – | 1598.3
318.15 K, x1 = 0.6039 | – | 1595.7
318.15 K, x1 = 0.6177 | 981.2 | –
318.15 K, x1 = 0.6258 | – | 1592.8
318.15 K, x1 = 0.6425 | – | 1590.6
318.15 K, x1 = 0.6478 | 980.7 | –
318.15 K, x1 = 0.6602 | – | 1588.3
318.15 K, x1 = 0.6789 | – | 1586
318.15 K, x1 = 0.6988 | – | 1583.5
318.15 K, x1 = 0.7025 | 979.9 | –
318.15 K, x1 = 0.7197 | – | 1581
318.15 K, x1 = 0.7436 | – | 1578.2
318.15 K, x1 = 0.7504 | 979.2 | –
318.15 K, x1 = 0.7664 | – | 1575.6
318.15 K, x1 = 0.7919 | – | 1572.7
318.15 K, x1 = 0.7927 | 978.5 | –
318.15 K, x1 = 0.8187 | – | 1569.8
318.15 K, x1 = 0.8416 | – | 1567.3
318.15 K, x1 = 0.8605 | 977.4 | –
318.15 K, x1 = 0.864 | – | 1564.8
318.15 K, x1 = 0.8864 | – | 1562.4
318.15 K, x1 = 0.9004 | 976.7 | –
318.15 K, x1 = 0.9086 | – | 1560
318.15 K, x1 = 0.926 | – | 1558
318.15 K, x1 = 0.9413 | – | 1556.3
318.15 K, x1 = 0.9496 | 975.8 | –
318.15 K, x1 = 0.9573 | – | 1554.4
318.15 K, x1 = 0.971 | – | 1552.7
318.15 K, x1 = 0.9808 | – | 1551.5
318.15 K, x1 = 0.9903 | – | 1550.3
318.15 K, x1 = 0.9952 | – | 1549.7
318.15 K, x1 = 1 | 974.9 | 1549
323.15 K, x1 = 0.005 | 987.42 | –
323.15 K, x1 = 0.0101 | 987.12 | –
323.15 K, x1 = 0.0196 | 986.93 | –
323.15 K, x1 = 0.0251 | 987.06 | –
323.15 K, x1 = 0.0304 | 987.26 | –
323.15 K, x1 = 0.05 | 987.48 | –
323.15 K, x1 = 0.0769 | 987.42 | –
323.15 K, x1 = 0.1002 | 987.52 | –
323.15 K, x1 = 0.1438 | 987.17 | –
323.15 K, x1 = 0.1845 | 986.36 | –
323.15 K, x1 = 0.2503 | 985.12 | –
323.15 K, x1 = 0.3 | 983.93 | –
323.15 K, x1 = 0.3343 | 983.17 | –
323.15 K, x1 = 0.4171 | 981.65 | –
323.15 K, x1 = 0.454 | 980.83 | –
323.15 K, x1 = 0.5003 | 980 | –
323.15 K, x1 = 0.5362 | 979.3 | –
323.15 K, x1 = 0.6177 | 978 | –
323.15 K, x1 = 0.6478 | 977.5 | –
323.15 K, x1 = 0.7025 | 976.7 | –
323.15 K, x1 = 0.7504 | 976.1 | –
323.15 K, x1 = 0.7927 | 975.4 | –
323.15 K, x1 = 0.8605 | 974.4 | –
323.15 K, x1 = 0.9004 | 973.7 | –
323.15 K, x1 = 0.9496 | 972.8 | –
323.15 K, x1 = 1 | 971.9 | –
328.15 K, x1 = 0.005 | 985.03 | –
328.15 K, x1 = 0.0101 | 984.7 | –
328.15 K, x1 = 0.0196 | 984.4 | –
328.15 K, x1 = 0.0251 | 984.49 | –
328.15 K, x1 = 0.0304 | 984.6 | –
328.15 K, x1 = 0.05 | 984.62 | –
328.15 K, x1 = 0.0769 | 984.36 | –
328.15 K, x1 = 0.1002 | 984.33 | –
328.15 K, x1 = 0.1438 | 983.84 | –
328.15 K, x1 = 0.1845 | 982.94 | –
328.15 K, x1 = 0.2503 | 981.66 | –
328.15 K, x1 = 0.3 | 980.46 | –
328.15 K, x1 = 0.3343 | 979.7 | –
328.15 K, x1 = 0.4171 | 978.26 | –
328.15 K, x1 = 0.454 | 977.43 | –
328.15 K, x1 = 0.5003 | 976.6 | –
328.15 K, x1 = 0.5362 | 976 | –
328.15 K, x1 = 0.6177 | 974.8 | –
328.15 K, x1 = 0.6478 | 974.3 | –
328.15 K, x1 = 0.7025 | 973.6 | –
328.15 K, x1 = 0.7504 | 972.9 | –
328.15 K, x1 = 0.7927 | 972.3 | –
328.15 K, x1 = 0.8605 | 971.3 | –
328.15 K, x1 = 0.9004 | 970.7 | –
328.15 K, x1 = 0.9496 | 969.9 | –
328.15 K, x1 = 1 | 969 | –
333.15 K, x1 = 0.005 | 982.48 | –
333.15 K, x1 = 0.0101 | 982.09 | –
333.15 K, x1 = 0.0196 | 981.69 | –
333.15 K, x1 = 0.0251 | 981.7 | –
333.15 K, x1 = 0.0304 | 981.74 | –
333.15 K, x1 = 0.05 | 981.63 | –
333.15 K, x1 = 0.0769 | 981.19 | –
333.15 K, x1 = 0.1002 | 981.04 | –
333.15 K, x1 = 0.1438 | 980.43 | –
333.15 K, x1 = 0.1845 | 979.44 | –
333.15 K, x1 = 0.2503 | 978.15 | –
333.15 K, x1 = 0.3 | 976.99 | –
333.15 K, x1 = 0.3343 | 976.21 | –
333.15 K, x1 = 0.4171 | 974.8 | –
333.15 K, x1 = 0.454 | 973.98 | –
333.15 K, x1 = 0.5003 | 973.2 | –
333.15 K, x1 = 0.5362 | 972.6 | –
333.15 K, x1 = 0.6177 | 971.5 | –
333.15 K, x1 = 0.6478 | 971 | –
333.15 K, x1 = 0.7025 | 970.3 | –
333.15 K, x1 = 0.7504 | 969.7 | –
333.15 K, x1 = 0.7927 | 969.1 | –
333.15 K, x1 = 0.8605 | 968.1 | –
333.15 K, x1 = 0.9004 | 967.6 | –
333.15 K, x1 = 0.9496 | 966.7 | –
333.15 K, x1 = 1 | 965.9 | –
